Measurements reported in US10231939B2, “Hydroxytyrosol and oleuropein compositions for induction of DNA damage, cell death and LSD1 inhibition” (priority 2012, dated 2019).
Values joined by “and” are separate entries in the source; they are usually repeats but may differ in a detail not shown here. Equal values may be shown once.

Assays:
Assay type in all cases: cell-based, human
CEM-CCRF cells = assay: Cell proliferation (Cell Titer-Blue Assay); details: for EC50: Homo sapiens
Method: (§1) Human acute T lymphoblast leukemic CEM-CCRF cells (ATTC NO. CCL-119), obtained from the ATCC were maintained in a Modified Eagle's Medium (α-MEM) supplemented with 2 mmol/L HEPES (pH 7.4; GIBCO-Invitrogen, Carlsbad, Calif., USA), 10% (v/v) FBS, 2 mmol/L L-glutamine (GIBCO-Invitrogen), and 80 units gentamicin (GIBCO-Invitrogen). Similarly, CEM-CCRF—P-glycoprotein (PGP)—over expressing, vinblastine derivative—R100 cells, expressing multi-drug resistance (MDR) were grown in a-MEM supplemented with 2 mmol/L HEPES (pH 7.4), 10% (v/v) FBS, 2 mmol/L L-glutamine, 80 units gentamicin and 100 ng/ml vinblastine. R100 cells were cultured in a-MEM/FBS/gentamicin media without vinblastine for 7 days prior to use in experiments. Cells were cultured in suspension in a humidified atmosphere of 5% (v/v) CO2 at 37° C. and were maintained in exponential growth phase. For maintenance, cells were passaged twice per week and seeded at ratios 1:10. Cell proliferation was determined using the Cell Titer-Blue Assay kit (Promega, Madison, Wis., USA). Cells were seeded at 10,000 cells per well in black flat bottom 96-well plates (Nalge Nunc, Penfield, N.Y., USA) and treated with serial doses of hydroxytyrosol (0-3200 μM) and oleuropein (0-12800 μM) for 24, 48 and 120 hours at 37° C., 5% (v/v) CO2. Following incubation with the test samples, Cell-Titer Blue reagent (20 μl per 100 μL) was added to each well and mixed gently for 5 sec prior to 4 hr incubation at 37° C. in a humidified atmosphere of 5% CO2. Fluorescence intensity (λex=550 nm and λem=615 nm) was determined using a Perkin Elmer Victor3 multilabel microplate counter (PerkinElmer, Waltham, Mass., USA). Data were expressed as % relative cell viability compared to untreated cells after correction of subtracting the media control fluorescence reading.

R100 cells = assay: Cell proliferation (Cell Titer-Blue Assay); details: for EC50: Homo sapiens
Method: as §1

K562 cells = assay: mRNA-Sequencing, K562 cells; details: 24 hours
Method: Cells were seeded at densities of 1×10^6/mL in culture flasks (Nalge Nunc, New York, USA) and treated with hydroxytyrosol (0, 20, 100 μM), for 24 hours at 37° C., 5% (v/v) CO2. mRNA sequencing was performed by TRIZOL extraction and library preparation using Illumina kits according to manufacturer's protocols. Next generation sequencing (NGS) was performed at a depth of approximately 20 million mapped reads per sample to determine the effect of hydroxytyrosol on genome-wide gene expression, in human erythroleukemic K562 cells and human keratinocytes (24 hr treatment, 20 and 100 μM). Reads generated by the Illumina base calling software V1.6 were aligned with Burrows Wheeler Aligner to the human transcriptome database curated by RefSeq (Hg18 build). Raw counts were normalized to adjust for slightly differing data volume across lanes giving the widely used score reads per transcript per million reads. These scores were used to determine relative fold changes and the conventionally used ±1.5 fold-change, which is discernible with qRT-PCR, was defined a significant change in expression. The online program MetaCore (GeneGo Inc. St. Joseph, MI, USA) was used for pathway analysis.
Cells were seeded at densities of 1×10^6/mL in culture flasks (Nalge Nunc, New York, USA) and K562 cells were treated with or without 100 μM hydroxytyrosol for 24 hours at 37° C., 5% (v/v) CO2. mRNA sequencing was performed by TRIZOL extraction and library preparation using Illumina kits according to manufacturer's protocols. Next generation sequencing (NGS) was performed at a depth of approximately 20 million mapped reads per sample. Reads generated by the Illumina base calling software V1.6 were aligned with Burrows Wheeler Aligner to the human transcriptome database curated by RefSeq (Hg18 build). Raw counts were normalized to adjust for slightly differing data volume across lanes giving the widely used score reads per transcript per million reads. These scores were used to determine relative fold changes and the conventionally used ±1.5 fold-change, which is discernible with qRT-PCR, was defined a significant change in expression. The online program MetaCore (GeneGo Inc. St. Joseph, MI, USA) was used for pathway analysis. The Warburg gene-set shown in Table 10 was used to investigate changes in Warburg-related genes in human erythroleukemic compared to normal peripheral blood mononuclear cells and changes in expression of Warburg-related genes following incubation of K562 cells with hydroxytyrosol.

[1] = 100 μM HT, negative = down-regulated
[2] = 100 μM HT, negative = down-regulated, listed as hydroxytyrosol
[3] = 100 μM hydroxytyrosol, unsigned

## C/C=C1/[C@H](O[C@@H]2O[C@H](CO)[C@@H](O)[C@H](O)[C@H]2O)OC=C(C(=O)OC)[C@H]1CC(=O)OCCc1ccc(O)c(O)c1 [OL, oleuropein]
CEM-CCRF cells; 120 hr
  EC10 (concentration required to reduce the cell viability of the population to 10%): 700 µM
  EC50: 325 µM
CEM-CCRF cells; 24 hr
  EC50: 437 µM
CEM-CCRF cells; 48 hr
  EC50: 1800 µM
R100 cells; R100, 24 hr
  EC50: 320 µM
R100 cells; R100, 48 hr
  EC50: 1000 µM
R100 cells; R100, 120 hr
  EC50: 250 µM
  EC10 (concentration required to reduce the cell viability of the population to 10%): 530 µM

## OCCc1ccc(O)c(O)c1 [HT, 4-(2-hydroxyethyl)-1,2-benzenediol]
CEM-CCRF cells; 120 hr
  EC10 (concentration required to reduce the cell viability of the population to 10%): 80 µM
  EC50: 42 µM
CEM-CCRF cells; 24 hr
  EC50: 121 µM
CEM-CCRF cells; 48 hr
  EC50: 100 µM
R100 cells; R100, 24 hr
  EC50: 190 µM
R100 cells; R100, 48 hr
  EC50: 100 µM
R100 cells; R100, 120 hr
  EC50: 40 µM
  EC10 (concentration required to reduce the cell viability of the population to 10%): 86 µM
K562 cells; 20 μM HT
  HDAC9 expression Fold Change (DOWN): 1.82 fold and 2.00 fold
  KDM4C expression Fold Change (DOWN): 1.61 fold
  NCOA2 expression Fold Change (DOWN): 1.63 fold
  PHF8 expression Fold Change (DOWN): 1.62 fold
  PRDM1 expression Fold Change (DOWN): 1.68 fold
  PRDM6 expression Fold Change (UP): 3.50 fold
  PRDM12 expression Fold Change (DOWN): 1.50 fold
  PRMT8 expression Fold Change (DOWN): 2.13 fold
K562 cells; 100 μM HT
  EHMT1 expression Fold Change (DOWN): 1.63 fold
  GTF3C4 expression Fold Change (DOWN): 1.55 fold
  HDAC7 expression Fold Change (DOWN): 1.76 fold and 1.78 fold
  HDAC9 expression Fold Change (UP): 2.05 fold and 1.50 fold
  KDM4A expression Fold Change (UP): 1.71 fold
  KDM4C expression Fold Change (DOWN): 1.66 fold
  KDM6B expression Fold Change (UP): 1.70 fold
  MLL3 expression Fold Change (DOWN): 1.68 fold
  NCOA2 expression Fold Change (DOWN): 1.50 fold
  NPM2 expression Fold Change (DOWN): 3.33 fold
  PPARGC1A expression Fold Change (UP): 2.00 fold
  PRDM6 expression Fold Change (DOWN): 2.00 fold
  PRDM9 expression Fold Change (UP): 1.85 fold
  PRDM10 expression Fold Change (DOWN): 1.92 fold
  PRDM12 expression Fold Change (UP): 2.00 fold
  PRDM15 expression Fold Change (DOWN): 1.78 fold
  PRMT8 expression Fold Change (DOWN): 1.89 fold
  RPS6KA5 expression Fold Change (UP): 1.56 fold
  SETD1A expression Fold Change (DOWN): 1.56 fold
  SETD7 expression Fold Change (UP): 3.41 fold
  SMYD3 expression Fold Change (UP): 1.60 fold and 1.57 fold
K562 cells; [1]
  ACLY expression Fold Change, K562 + 100 μM HT: −1.60 fold
  AKT3 expression Fold Change, K562 + 100 μM HT: 2.04 fold
  BBC3 expression Fold Change, K562 + 100 μM HT: 2.66 fold
  C12orf5 expression Fold Change, K562 + 100 μM HT: 3.57 fold
  CASP4 expression Fold Change, K562 + 100 μM HT: 1.87 fold
  CASP7 expression Fold Change, K562 + 100 μM HT: 2.27 fold
  CASP8 expression Fold Change, K562 + 100 μM HT: 1.62 fold
  ME1 expression Fold Change, K562 + 100 μM HT: 2.22 fold
  PFKFB2 expression Fold Change, K562 + 100 μM HT: −1.53 fold
  PFKFB4 expression Fold Change, K562 + 100 μM HT: −1.79 fold
  SLC1A4 expression Fold Change, K562 + 100 μM HT: 4.28 fold
  SREBF1 expression Fold Change, K562 + 100 μM HT: −1.69 fold
  TFR2 expression Fold Change, K562 + 100 μM HT: −1.90 fold
  TP53 expression Fold Change, K562 + 100 μM HT: 2.30 fold
  VEGFA expression Fold Change, K562 + 100 μM HT: 2.65 fold
K562 cells; [2]
  BBC3 expression Fold Change, K562 + 100 μM HT: 2.29 fold
  CASP7 expression Fold Change, K562 + 100 μM HT: 2.01 fold
  TP53 expression Fold Change, K562 + 100 μM HT: 1.91 fold
K562 cells; 100 μM hydroxytyrosol
  differentially expressed Warburg-related genes reversing expression towards that observed in PBMC cells: 87%
K562 cells; [3]
  ACLY down-regulated, fold change: 1.59 fold
  PFKB2 down-regulated, fold change: 1.53 fold
  PFKFB4 down-regulated, fold change: 1.79 fold
  transferrin receptor 2 (TRF2) down-regulated: 1.9 fold
K562 cells; 100 μM hydroxytyrosol, share of the 51 genes
  differential expression of the Warburg-related genes regulated in K562 vs PBMC: 30%
